According to patent US6632809B2, “Gyrase inhibitors and uses thereof” (Vertex Pharmaceuticals Incorporated, priority 2000, dated 2003):
In brackets after ≈: the same amount, converted by molar mass.

What was measured:
[1] = molecular target: DNA gyrase (374 kDa Gyr A2B2 subunit from Staphylococcus aureus) (Staphylococcus aureus, UniProt P0A0K8); experiment: Gyrase ATPase Assay; type: biochemical; settings: 10 μM concentration; ATPase assay at 30° C., 0.9 mM ATP; average of duplicate values; read-out: Gyrase Inhibitory Activity (percent inhibition)
Protocol: The ATP hydrolysis activity of DNA gyrase was measure by coupling the production of ADP through pyruvate kinase/lactate dehydrogenase to the oxidation of NADH. This method has been described previously (Tamura and Gellert, 1990, J. Biol. Chem., 265, 21342).
ATPase assays are carried out at 30° C. in buffered solutions containing 100 mM TRIS pH 7.6, 1.5 mM MgCl2, 50 mM KCl. The coupling system contains (final concentrations) 2.5 mM phosphoenol pyruvate, 200 μM nicotinamide adenine dinucleotide (NADH), 1 mM DTT, […], and 10 ug/ml lactate dehydrogenase. 40 nanomolar enzyme (374 kDa Gyr A2B2 subunit from Staphylococcus aureus) and a DMSO solution of the inhibitor to a final concentration of 4% are added and the reaction mixture is allowed to incubate for 10 minutes at 30° C. The reaction is then started by the addition of ATP to a final concentration of 0.9 mM and the rate of NADH disappearance at 340 nanometers is measured over the course of 10 minutes. The percent inhibition values are determined from rate versus concentration profiles and are reported as the average of duplicate values.
The compound numbers correspond to the compound numbers in Table 1. Compounds having an activity designated as “A” provided a percent inhibition value below 50 percent; compounds having an activity designated as “B” provided a percent inhibition value between 50 and 75 percent; and compounds having an activity designated as “C” provided a percent inhibition value greater than 75 percent.

test bacteria = experiment: Susceptibility Testing in Liquid Media (MIC assay); type: cell-based; settings: broth dilution, MHB, 35° C. overnight (16 to 20 hr), organism not given; for MIC: read-out: MIC (minimal inhibitory concentration) activity level
Protocol: Susceptibility Testing in Liquid Media
Compounds of this invention were also tested for antimicrobial activity by susceptibility testing in liquid media. Such assays were performed within the guidelines of the latest NCCLS document governing such practices: “M7-A5 Methods for dilution Antimicrobial Susceptibility Tests for Bacteria that Grow Aerobically; Approved Standard—Fifth Edition (2000)”. Other publications such as “Antibiotics in Laboratory Medicine” (Edited by V. Lorian, Publishers Williams and Wilkins, 1996) provide essential practical techniques in laboratory antibiotic testing. Essentially, several discrete bacterial colonies (3 to 7) from a freshly streaked plate were transferred to an appropriate rich broth medium such as MHB, supplemented where appropriate for the more fastidious organisms. This was grown overnight to high density followed by a 1 or 2-thousand-fold dilution to give an inoculation density of between 5×10^5 and 5×10^6 CFU per mL. Alternatively, the freshly picked colonies can be incubated at 37° C. for about 4 to 8 hrs until the culture equals or exceeds a turbidity of a 0.5 McFarland standard (approximately 1.5×10^8 cells per mL) and diluted to give the same CFU per mL as above. In a more convenient method, the inoculum was prepared using a commercially available mechanical device (the BBL PROMPT System) that involves touching five colonies directly with a wand, containing crosshatch grooves at its bottom, followed by suspension of the bacteria in an appropriate volume of saline. Dilution to the appropriate inoculum cell density was made from this cell suspension. The broth used for testing consists of MHB supplemented with 50 mg per L of Ca^2+ and 25 mg per L of Mg^2+. Standard dilution panels of control antibiotics were made and stored as in the NCCLS standard M7-A5, the dilution range typically being in the 128 μg per mL to 0.015 μg per mL (by 2-fold serial dilution). The test compounds were dissolved and diluted fresh for experimentation on the same day; the same or similar ranges of concentration as above being used. The test compounds and controls were dispensed into a multiwell plate and test bacteria added such that the final inoculation was approximately 5×10^4 CFU per well and the final volume was 100 μL. The plates were incubated at 35° C. overnight (16 to 20 hr) and checked by eye for turbidity or quantitated with a multiwell plate reader. […] Such determinations were also compared to the appropriate tables contained in the above two publications to ensure that the range of antibacterial activity is within the acceptable range for this standardized assay.
The compound numbers correspond to the compound numbers in Table 1.

DNA gyrase (374 kDa Gyr A2B2 subunit from Staphylococcus aureus), sequence (P0A0K8 whole entry): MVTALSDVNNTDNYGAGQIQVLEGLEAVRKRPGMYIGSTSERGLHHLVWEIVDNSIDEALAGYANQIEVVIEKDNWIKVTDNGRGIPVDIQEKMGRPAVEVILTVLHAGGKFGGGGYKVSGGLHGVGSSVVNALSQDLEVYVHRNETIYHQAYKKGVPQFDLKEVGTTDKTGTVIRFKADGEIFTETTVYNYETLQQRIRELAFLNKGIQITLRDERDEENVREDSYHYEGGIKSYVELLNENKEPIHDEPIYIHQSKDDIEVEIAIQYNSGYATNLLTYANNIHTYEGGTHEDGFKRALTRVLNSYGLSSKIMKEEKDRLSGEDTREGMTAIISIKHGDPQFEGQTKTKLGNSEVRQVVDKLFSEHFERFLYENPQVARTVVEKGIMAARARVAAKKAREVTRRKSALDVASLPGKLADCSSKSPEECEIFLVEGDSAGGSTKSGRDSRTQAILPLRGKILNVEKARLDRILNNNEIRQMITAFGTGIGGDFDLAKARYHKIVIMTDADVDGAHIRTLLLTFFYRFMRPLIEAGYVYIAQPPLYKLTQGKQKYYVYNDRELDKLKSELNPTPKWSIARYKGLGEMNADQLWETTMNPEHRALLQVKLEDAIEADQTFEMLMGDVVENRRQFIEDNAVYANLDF
DNA gyrase (374 kDa Gyr A2B2 subunit from Staphylococcus aureus), sequence (P20831 whole entry, further chain): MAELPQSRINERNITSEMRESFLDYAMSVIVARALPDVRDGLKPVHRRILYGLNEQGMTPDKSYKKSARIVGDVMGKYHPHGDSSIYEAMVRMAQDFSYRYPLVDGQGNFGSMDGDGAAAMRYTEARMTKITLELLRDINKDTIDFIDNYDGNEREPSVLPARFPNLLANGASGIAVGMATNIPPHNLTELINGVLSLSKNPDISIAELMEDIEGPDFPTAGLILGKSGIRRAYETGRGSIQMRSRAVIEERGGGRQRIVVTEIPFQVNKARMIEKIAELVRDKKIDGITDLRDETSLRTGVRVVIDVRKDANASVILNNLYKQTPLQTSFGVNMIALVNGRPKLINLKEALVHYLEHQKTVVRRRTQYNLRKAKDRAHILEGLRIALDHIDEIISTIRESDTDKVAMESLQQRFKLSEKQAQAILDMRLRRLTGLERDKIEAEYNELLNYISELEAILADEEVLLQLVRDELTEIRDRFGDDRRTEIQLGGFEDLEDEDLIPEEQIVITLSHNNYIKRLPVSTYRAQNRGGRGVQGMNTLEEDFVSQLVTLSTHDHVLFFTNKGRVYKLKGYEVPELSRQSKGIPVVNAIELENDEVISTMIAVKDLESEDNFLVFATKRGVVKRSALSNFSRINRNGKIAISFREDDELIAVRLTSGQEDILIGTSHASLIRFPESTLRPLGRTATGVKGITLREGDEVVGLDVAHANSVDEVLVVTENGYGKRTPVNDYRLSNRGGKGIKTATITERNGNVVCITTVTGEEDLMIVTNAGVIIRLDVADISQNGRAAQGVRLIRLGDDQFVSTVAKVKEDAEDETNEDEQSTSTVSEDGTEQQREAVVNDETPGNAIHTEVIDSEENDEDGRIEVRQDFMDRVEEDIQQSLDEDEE

Compound | inhibition at 10 µM [1] [%] | MIC (test bacteria) [µg/mL] | MIC (minimal inhibitory concentration) activity level (test bacteria)
CCNC(=O)Nc1nc2cc(-c3ccc(N4CCCC4)nc3)ccc2[nH]1 [Ia-177] | > 75 | > 40 | 
CCNC(=O)Nc1nc2cc(-c3cccnc3)ccc2[nH]1 [Ia-118] | > 75 | < 10 | 
CCNC(=O)Nc1nc2cc(-n3cc(C(=O)NCC(C)C)cn3)ccc2[nH]1 [Ia-173] | > 75 | 10 to 40 (≈ 27.1 to 108 µM) | 
CCNC(=O)Nc1nc2cc(-c3ccc(CNS(C)(=O)=O)cc3)ccc2[nH]1 [Ia-138] | > 75 | > 40 | 
CCNC(=O)Nc1nc2cc(-c3cccnc3)c(N3CCOCC3)cc2[nH]1 [Ia-164] | > 75 | > 40 | 
CCNC(=O)Nc1nc2cc(-c3cccnc3)c(C)cc2[nH]1 [Ia-133] | > 75 | < 10 | 
CCNC(=O)Nc1nc2cc(-c3cccnc3)c(OC)c(C)c2[nH]1 [Ia-147] | 50 to 75 | > 40 | 
CCNC(=O)Nc1nc2cc(-c3ccc(N4CCC(O)C4)nc3)ccc2[nH]1 (stereo not drawn) [Ia-179] | > 75 | > 40 | 
CCNC(=O)Nc1nc2cc(-c3ccc(N4CCOCC4)nc3)ccc2[nH]1 [Ia-166] | > 75 | > 40 | 
CC(C)NC(=O)Nc1nc2cc(-c3cccnc3)ccc2[nH]1 [Ia-120] | 50 to 75 | > 40 | 
CCNC(=O)Nc1nc2cc(-c3ccc(OCC)nc3)ccc2[nH]1 [Ia-163] | > 75 | < 10 | 
CCNC(=O)Nc1nc2cc(-c3cccnc3)c3c(c2[nH]1)OC(F)(F)O3 [Ia-153] | 50 to 75 | > 40 | 
CCNC(=O)Nc1nc2cc(-c3nnc(C)o3)ccc2[nH]1 [Ia-150] | 50 to 75 | > 40 | 
CCNC(=O)Nc1nc2cc(-c3ccc(OCCOCC)nc3)ccc2[nH]1 [Ia-197] |  | 10 to 40 (≈ 27.1 to 108 µM) | 
CSc1ncc(-c2ccc3[nH]c(NC(=O)NC(C)C)nc3c2)cn1 [Ia-116] | 50 to 75 | > 40 | 
CCNC(=O)Nc1nc2cc(-c3cccnc3)cc(OCc3ccccc3)c2[nH]1 [Ia-168] | > 75 | < 10 | 
CCNC(=O)Nc1nc2cc(-c3cccnc3)cc(C)c2[nH]1 [Ia-58] | > 75 | < 10 | 
CCNC(=O)Nc1nc2cc(-c3cccnc3)cc(O)c2[nH]1 [Ia-169] |  |  | B (provided an MIC of between 10 and 40 μg/mL)
CCNC(=O)Nc1nc2nc(N3CCC(N)C3)ccc2[nH]1 (stereo not drawn) [Ia-198] |  | 10 to 40 (≈ 34.6 to 138 µM) | 
CCOC(=O)Nc1nc2cc(-c3cccnc3)ccc2[nH]1 [Ia-11, (5-Pyridin-3-yl-1H-benzoimidazol-2-yl)-carbamic acid ethyl ester] | > 75 |  | 
CCNC(=O)Nc1nc2cc(C(=O)O)ccc2[nH]1 [Ia-33] | < 50 |  | 
CCNC(=O)Nc1nc2cc(-c3cnc(NCc4ccc(F)c(Cl)c4)nc3)ccc2[nH]1 [Ia-61] | > 75 |  | 
CCOC(=O)Nc1nc2cc(-c3cccc(OCC)c3)ccc2[nH]1 [Ia-15] | 50 to 75 |  | 
CCOC(=O)Nc1nc2cc(-c3cnc(NCCNC(=O)OC(C)(C)C)nc3)ccc2[nH]1 [Ia-86] | > 75 |  | 
CCNC(=O)Nc1nc2cc(-n3cc(C(=O)N4CCOCC4)cn3)ccc2[nH]1 [Ia-172] | > 75 |  | 
CCNC(=O)Nc1nc2cc(-c3cnc(NCCc4ccccn4)nc3)ccc2[nH]1 [Ia-63] | > 75 |  | 
CCNC(=O)Nc1nc2cc(-c3ccccc3)cc(OC)c2[nH]1 [Ia-50] | 50 to 75 |  | 

Compound | inhibition at 10 µM [1] [%] | MIC (test bacteria) [µg/mL] | MIC (minimal inhibitory concentration) activity level (test bacteria)
CCNC(=O)Nc1nc2cc(-c3cnc(N4CC(C)CC(C)C4)nc3)ccc2[nH]1 (stereo not drawn) [Ia-109] | > 75 |  | 
CCNC(=O)Nc1nc2cc(-c3cnc(NCCCOC)nc3)ccc2[nH]1 [Ia-102] | > 75 |  | 
CCOC(=O)Nc1nc2cc(-c3ccccc3)cc(Br)c2[nH]1 [Ia-19] | > 75 |  | 
CCNC(=O)Nc1nc2cc(-c3cnc(N)nc3)c(OC)cc2[nH]1 [Ia-126] | > 75 |  | 
CCNC(=O)Nc1nc2cc(-c3cccnc3)cc(OC)c2[nH]1 [Ia-108] | > 75 |  | 
CCNC(=O)Nc1nc2cc(-c3cnc(NCC(=O)O)nc3)ccc2[nH]1 [Ia-35] | > 75 |  | 
CCNC(=O)Nc1nc2cc(-c3cnc(N4CCN(C)CC4)nc3)ccc2[nH]1 [Ia-64] | > 75 |  | 
CCNC(=S)Nc1nc2cc(-c3cnc(NCC(=O)O)nc3)ccc2[nH]1 [Ia-39] | > 75 |  | 
CCNC(=O)Nc1nc2cc(-c3ccc(CN(C(=O)OC(C)(C)C)C(C)(C)C)nc3)ccc2[nH]1 [Ia-143] | > 75 |  | 
CCNC(=O)Nc1nc2cc(-c3cnc(NCc4ccccn4)nc3)ccc2[nH]1 [Ia-48] | > 75 |  | 
CCOC(=O)Nc1nc2cc(-c3cccc(C(=O)OC)c3)ccc2[nH]1 [Ia-81] | 50 to 75 |  | 
CCOC(=O)Nc1nc2cc(-c3ccc(OC)cc3)ccc2[nH]1 [Ia-23] | > 75 |  | 
CCOC(=O)Nc1nc2cc(-c3ccccc3)ccc2n1C [Ia-10] | < 50 |  | 
CCOC(=O)Nc1nc2cc(-c3ccccc3)ccc2[nH]1 [Ia-1] | 50 to 75 |  | 
CCOC(=O)Nc1nc2cc(-c3cnc(NCC(=O)O)nc3)ccc2[nH]1 [Ia-80] | > 75 |  | 
CCNC(=O)Nc1nc2cc(-c3cnc(NCC)nc3)ccc2[nH]1 [Ia-66] | > 75 |  | 
CCNC(=O)Nc1nc2cc(-c3cnc(N4CCC(O)C4)nc3)ccc2[nH]1 (stereo not drawn) [Ia-129] | > 75 |  | 
O=C(Nc1nc2cc(-c3cccnc3)ccc2[nH]1)NC1CC1 [Ia-38] | 50 to 75 |  | 
CCNC(=O)Nc1nc2cc(-c3cnc(OC)nc3OC)ccc2[nH]1 [Ia-52] | > 75 |  | 
CCOC(=O)Nc1nc2cc(-c3cnc(OC)nc3)ccc2[nH]1 [Ia-22] | > 75 |  | 
C#CCOC(=O)Nc1nc2cc(-c3ccccc3)ccc2[nH]1 [Ia-8] | < 50 |  | 
CCNC(=S)Nc1nc2cc(-c3cnc(NCC(=O)OC(C)(C)C)nc3)ccc2[nH]1 [Ia-37] | > 75 |  | 
CCOC(=O)Nc1nc2cc(-c3ccc(=O)[nH]c3)ccc2[nH]1 [Ia-71] | < 50 |  | 
CCNC(=O)Nc1nc2cc(-c3cccnc3)c(F)cc2[nH]1 [Ia-62] | > 75 |  | 
COC(=O)CCNc1nc2cc(-c3cccnc3)ccc2[nH]1 [Ia-75] | < 50 |  | 
CCNC(=O)Nc1nc2cc(-n3cc(C(=O)O)c4ncccc43)ccc2[nH]1 [Ia-196] |  | 10 to 40 (≈ 27.4 to 110 µM) | 
